Results reported in patent US20160264536A1, “HETEROCYCLIC COMPOUND” (Takeda Pharmaceutical Company Limited, priority 2013, published 2016).

The compounds below were run against T1, human PDE2A3 enzyme (Homo sapiens, UniProt O00408) (assay: PDE enzyme inhibitory assay (SPA, [3H]cGMP substrate)). Details: compound 1 μM, substrate [3H]cGMP 77 nM, read-out: inhibitory rate (%) (1 μM).
T1 construct: Human PDE2A3 full-length gene was transduced into Sf9; His-tag; made in house; host or cells: Sf9 insect cells
Format: biochemical
Description: PDE Enzyme Inhibitory Assay
Human PDE2A3 full-length gene was transduced into Sf9, and human PDE2A3 enzyme was purified by His-tag affinity column and gel filtration. The enzyme was stored at −70° C. until use. PDE activity was measured by using a SPA (Scintillation Proximity Assay) (GE Healthcare). To evaluate the inhibitory activity of the compound, 10 μl of serial diluted compounds were reacted with 20 μl of PDE enzyme in assay buffer (50 mM HEPES-NaOH, 8.3 mM MgCl2, 1.7 mM EGTA, 0.1% BSA (pH 7.4)) for 30 min at room temperature. Final concentration of DMSO in the reaction solution was 1%. Compounds were tested in duplicate in 96-well half-area plates (Corning) or 384-well OptiPlate (PerkinElmer). To start the reaction, 10 μl of substrate [^3H]cGMP (final concentration 77 nM, PerkinElmer) was added to a total volume of 40 μl. After reaction for 60 min at room temperature, 20 μl of 20 mg/mL yttrium SPA beads containing zinc sulfate was added to terminate the reaction. After being settled for further 1 hour, the assay plates were counted in a scintillation counter (PerkinElmer) to allow calculation of inhibition rate. Inhibition rate was calculated on the basis of 0% control wells with enzyme and DMSO, and 100% control wells without enzyme.

T1 sequence (O00408 whole entry): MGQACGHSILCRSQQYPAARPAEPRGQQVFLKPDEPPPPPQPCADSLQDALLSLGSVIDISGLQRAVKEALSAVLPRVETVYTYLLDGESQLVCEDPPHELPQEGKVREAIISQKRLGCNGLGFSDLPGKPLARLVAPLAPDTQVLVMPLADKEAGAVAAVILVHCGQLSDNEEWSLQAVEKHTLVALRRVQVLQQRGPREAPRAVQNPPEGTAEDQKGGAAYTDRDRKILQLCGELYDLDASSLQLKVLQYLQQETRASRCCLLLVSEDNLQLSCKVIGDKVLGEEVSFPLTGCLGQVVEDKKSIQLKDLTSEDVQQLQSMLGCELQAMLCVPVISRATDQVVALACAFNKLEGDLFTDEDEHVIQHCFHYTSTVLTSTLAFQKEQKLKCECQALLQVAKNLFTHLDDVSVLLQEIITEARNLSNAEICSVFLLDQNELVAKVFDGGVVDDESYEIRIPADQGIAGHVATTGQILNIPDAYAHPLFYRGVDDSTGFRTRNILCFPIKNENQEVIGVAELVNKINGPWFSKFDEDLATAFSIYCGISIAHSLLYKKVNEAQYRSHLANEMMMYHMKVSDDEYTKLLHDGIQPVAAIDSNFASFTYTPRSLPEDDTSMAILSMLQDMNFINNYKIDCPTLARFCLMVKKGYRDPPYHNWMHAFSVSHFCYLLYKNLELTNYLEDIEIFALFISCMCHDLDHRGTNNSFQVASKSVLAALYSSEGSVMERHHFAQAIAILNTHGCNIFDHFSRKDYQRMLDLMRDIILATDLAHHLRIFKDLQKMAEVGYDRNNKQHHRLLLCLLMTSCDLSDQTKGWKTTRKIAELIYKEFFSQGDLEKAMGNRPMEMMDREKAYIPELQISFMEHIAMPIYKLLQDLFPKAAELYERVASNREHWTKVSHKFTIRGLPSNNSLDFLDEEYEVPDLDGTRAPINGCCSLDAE

| Structure (SMILES) | inhibition at 1 µM |
| --- | --- |
| COC[C@@H](NC(=O)c1cc(=O)[nH]c(N(C)C)n1)c1ccc(OC(F)(F)F)cc1 [Example 20, 2-(dimethylamino)-N-((1S)-2-methoxy-1-(4-(trifluoromethoxy)phenyl)ethyl)-6-oxo-1,6-dihydropyrimidine-4-carboxamide] | 98% |
| COC[C@@H](NC(=O)c1cc(=O)[nH]c(N(C)C)n1)c1ccc(OC(F)(F)F)c(F)c1 [Example 33, 2-(dimethylamino)-N-((1S)-1-(3-fluoro-4-(trifluoromethoxy)phenyl)-2-methoxyethyl)-6-oxo-1,6-dihydropyrimidine-4-carboxamide] | 99% |
| COC[C@@H](NC(=O)c1cc(=O)[nH]c(N2CC[C@H](OC)C2)n1)c1ccc(OC(F)(F)F)cc1 [Example 45, 2-((3S)-3-methoxypyrrolidin-1-yl)-N-((1S)-2-methoxy-1-(4-(trifluoromethoxy)phenyl)ethyl)-6-oxo-1,6-dihydropyrimidine-4-carboxamide] | 97% |
| COC[C@@H](NC(=O)c1cc(=O)[nH]c(N2CCCC2)n1)c1ccc(OC(F)(F)F)cc1 [Example 52, N-((1S)-2-methoxy-1-(4-(trifluoromethoxy)phenyl)ethyl)-6-oxo-2-(pyrrolidin-1-yl)-1,6-dihydropyrimidine-4-carboxamide] | 102% |
| COC[C@@H](NC(=O)c1cc(=O)[nH]c(N2CC(OC)C2)n1)c1ccc(OC(F)(F)F)cc1 [Example 55, 2-(3-methoxyazetidin-1-yl)-N-((1S)-2-methoxy-1-(4-(trifluoromethoxy)phenyl)ethyl)-6-oxo-1,6-dihydropyrimidine-4-carboxamide] | 98% |
| COC[C@@H](NC(=O)c1cc(=O)[nH]c(N2CCCC2)n1)c1ccc(OC(F)(F)F)c(F)c1 [Example 61, N-((1S)-1-(3-fluoro-4-(trifluoromethoxy)phenyl)-2-methoxyethyl)-6-oxo-2-(pyrrolidin-1-yl)-1,6-dihydropyrimidine-4-carboxamide] | 98% |
| CC(C)(O)C(NC(=O)c1cc(=O)[nH]c(N2CCCC2)n1)c1ccc(OC(F)(F)F)c(F)c1 (stereo not drawn) [Example 62, N-(1-(3-fluoro-4-(trifluoromethoxy)phenyl)-2-hydroxy-2-methylpropyl)-6-oxo-2-(pyrrolidin-1-yl)-1,6-dihydropyrimidine-4-carboxamide] | 99% |
| COC[C@@H](NC(=O)c1cc(=O)[nH]c(N2CC[C@H](OC(C)C)C2)n1)c1ccc(OC(F)(F)F)cc1 [Example 67, 2-((3S)-3-isopropoxypyrrolidin-1-yl)-N-((1S)-2-methoxy-1-(4-(trifluoromethoxy)phenyl)ethyl)-6-oxo-1,6-dihydropyrimidine-4-carboxamide] | 100% |
| COC[C@@H](NC(=O)c1cc(=O)[nH]c(N2CC3CC(C2)O3)n1)c1ccc(OC(F)(F)F)c(F)c1 [Example 73, N-((1S)-1-(3-fluoro-4-(trifluoromethoxy)phenyl)-2-methoxyethyl)-2-(6-oxa-3-azabicyclo[3.1.1]hept-3-yl)-6-oxo-1,6-dihydropyrimidine-4-carboxamide] | 99% |
| CCN(C)c1nc(C(=O)N[C@H](COC)c2ccc(OC(F)(F)F)c(F)c2)cc(=O)[nH]1 [Example 76, 2-(ethyl(methyl)amino)-N-((1S)-1-(3-fluoro-4-(trifluoromethoxy)phenyl)-2-methoxyethyl)-6-oxo-1,6-dihydropyrimidine-4-carboxamide] | 101% |
| COC[C@@H](NC(=O)c1cc(=O)[nH]c(C(C)(C)C)n1)c1ccc(OC(F)(F)F)c(F)c1 [Example 80, 2-tert-butyl-N-((1S)-1-(3-fluoro-4-(trifluoromethoxy)phenyl)-2-methoxyethyl)-6-oxo-1,6-dihydropyrimidine-4-carboxamide] | 94% |
| COC[C@@H](NC(=O)c1cc(=O)[nH]c(C2CC2)n1)c1ccc(OC(F)(F)F)c(F)c1 [Example 81, 2-cyclopropyl-N-((1S)-1-(3-fluoro-4-(trifluoromethoxy)phenyl)-2-methoxyethyl)-6-oxo-1,6-dihydropyrimidine-4-carboxamide] | 93% |
| COC[C@@H](NC(=O)c1cc(=O)[nH]c(C2=CCCC2)n1)c1ccc(OC(F)(F)F)c(F)c1 [Example 83, 2-(cyclopent-1-en-1-yl)-N-((1S)-1-(3-fluoro-4-(trifluoromethoxy)phenyl)-2-methoxyethyl)-6-oxo-1,6-dihydropyrimidine-4-carboxamide] | 98% |
| COC[C@@H](NC(=O)c1cc(=O)[nH]c(-c2ccccc2)n1)c1ccc(OC(F)(F)F)c(F)c1 [Example 87, N-((1S)-1-(3-fluoro-4-(trifluoromethoxy)phenyl)-2-methoxyethyl)-6-oxo-2-phenyl-1,6-dihydropyrimidine-4-carboxamide] | 98% |
| COC[C@@H](NC(=O)c1cc(=O)[nH]c(-c2ccccn2)n1)c1ccc(OC(F)(F)F)c(F)c1 [Example 88, N-((1S)-1-(3-fluoro-4-(trifluoromethoxy)phenyl)-2-methoxyethyl)-6-oxo-2-(pyridin-2-yl)-1,6-dihydropyrimidine-4-carboxamide] | 92% |
| CC(C)(C)c1nc(C(=O)N[C@@H](c2ccc(OC(F)(F)F)c(F)c2)C(C)(C)O)cc(=O)[nH]1 [Example 95, 2-tert-butyl-N-(1-(3-fluoro-4-(trifluoromethoxy)phenyl)-2-hydroxy-2-methylpropyl)-6-oxo-1,6-dihydropyrimidine-4-carboxamide] | 104% |
| CC(C)(O)[C@@H](NC(=O)c1cc(=O)[nH]c(C2CC2)n1)c1ccc(OC(F)(F)F)c(F)c1 [Example 96, 2-cyclopropyl-N-((1S)-1-(3-fluoro-4-(trifluoromethoxy)phenyl)-2-hydroxy-2-methylpropyl)-6-oxo-1,6-dihydropyrimidine-4-carboxamide] | 94% |
| CC(C)(O)[C@@H](NC(=O)c1cc(=O)[nH]c(-c2ccccn2)n1)c1ccc(OC(F)(F)F)c(F)c1 [Example 102, N-((1S)-1-(3-fluoro-4-(trifluoromethoxy)phenyl)-2-hydroxy-2-methylpropyl)-6-oxo-2-(pyridin-2-yl)-1,6-dihydropyrimidine-4-carboxamide] | 102% |
| COC[C@@H](NC(=O)c1cc(=O)[nH]c(C2(C)CC2)n1)c1ccc(OC(F)(F)F)c(F)c1 [Example 103, N-((1S)-1-(3-fluoro-4-(trifluoromethoxy)phenyl)-2-methoxyethyl)-2-(1-methylcyclopropyl)-6-oxo-1,6-dihydropyrimidine-4-carboxamide] | 108% |
| COC[C@@H](NC(=O)c1cc(=O)[nH]c(-c2ccc(OC)cn2)n1)c1ccc(OC(F)(F)F)c(F)c1 [Example 105, N-((1S)-1-(3-fluoro-4-(trifluoromethoxy)phenyl)-2-methoxyethyl)-2-(5-methoxypyridin-2-yl)-6-oxo-1,6-dihydropyrimidine-4-carboxamide] | 104% |
| COC[C@@H](NC(=O)c1cc(=O)[nH]c(-c2cccs2)n1)c1ccc(OC(F)(F)F)c(F)c1 [Example 107, N-((1S)-1-(3-fluoro-4-(trifluoromethoxy)phenyl)-2-methoxyethyl)-6-oxo-2-(2-thienyl)-1,6-dihydropyrimidine-4-carboxamide] | 97% |
| CC#Cc1nc(C(=O)N[C@H](COC)c2ccc(OC(F)(F)F)c(F)c2)cc(=O)[nH]1 [Example 111, N-((1S)-1-(3-fluoro-4-(trifluoromethoxy)phenyl)-2-methoxyethyl)-6-oxo-2-(prop-1-yn-1-yl)-1,6-dihydropyrimidine-4-carboxamide] | 94% |
| CC(C)(O)[C@@H](NC(=O)c1cc(=O)[nH]c(C2=CCCC2)n1)c1ccc(OC(F)(F)F)c(F)c1 [Example 114, 2-(cyclopent-1-en-1-yl)-N-((1S)-1-(3-fluoro-4-(trifluoromethoxy)phenyl)-2-hydroxy-2-methylpropyl)-6-oxo-1,6-dihydropyrimidine-4-carboxamide] | 104% |
| COC[C@@H](NC(=O)c1cc(=O)[nH]c(C2=CCCC2)n1)c1ccc(OC(F)(F)F)cc1 [Example 115, 2-(cyclopent-1-en-1-yl)-N-((1S)-2-methoxy-1-(4-(trifluoromethoxy)phenyl)ethyl)-6-oxo-1,6-dihydropyrimidine-4-carboxamide] | 100% |
| COCC(NC(=O)c1cc(=O)[nH]c(-c2ccccn2)n1)c1ccc(-n2cccc2)c(F)c1 (stereo not drawn) [Example 116, N-(1-(3-fluoro-4-(1H-pyrrol-1-yl)phenyl)-2-methoxyethyl)-6-oxo-2-(pyridin-2-yl)-1,6-dihydropyrimidine-4-carboxamide] | 99% |
| COC[C@@H](NC(=O)c1cc(=O)[nH]c(-c2ccsc2)n1)c1ccc(OC(F)(F)F)c(F)c1 [Example 120, N-((1S)-1-(3-fluoro-4-(trifluoromethoxy)phenyl)-2-methoxyethyl)-6-oxo-2-(3-thienyl)-1,6-dihydropyrimidine-4-carboxamide] | 103% |
| COC[C@@H](NC(=O)c1cc(=O)[nH]c(-c2ccco2)n1)c1ccc(OC(F)(F)F)c(F)c1 [Example 121, N-((1S)-1-(3-fluoro-4-(trifluoromethoxy)phenyl)-2-methoxyethyl)-2-(2-furyl)-6-oxo-1,6-dihydropyrimidine-4-carboxamide] | 95% |
